Reference: patent publication EP2876156A1 (COMMISSARIAT A L'ENERGIE ATOMIQUE ET AUX ENERGIES …, priority 2013, dated 2015)

Biological target: T1, ENZ1 (SEQ ID NO:1) (Catenulispora acidiphila, UniProt C7QJ42)
T1 construct: His6 (hexahistidine, inserted after the initial methionine) (N); made in house; host or cells: E. coli BL21(DE3) plysE
T1 sequence (C7QJ42 1-358): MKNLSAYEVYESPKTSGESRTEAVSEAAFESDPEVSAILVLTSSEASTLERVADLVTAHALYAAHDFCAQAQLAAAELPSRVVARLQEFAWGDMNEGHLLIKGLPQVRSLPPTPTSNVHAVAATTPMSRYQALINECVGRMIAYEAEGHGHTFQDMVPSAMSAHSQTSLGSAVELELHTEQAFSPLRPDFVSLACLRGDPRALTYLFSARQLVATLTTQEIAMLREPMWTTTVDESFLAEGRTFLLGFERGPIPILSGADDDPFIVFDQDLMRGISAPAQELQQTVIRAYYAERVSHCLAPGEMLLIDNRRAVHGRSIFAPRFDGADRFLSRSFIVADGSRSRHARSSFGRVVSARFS
Test: Enzymatic hydroxylation of L-lysine, 10 mL scale, conversion by HPLC (protocol A)
Format: biochemical
Details: ENZ1 0.024 mg/mL, L-lysine 10 mM, α-ketoglutarate 15 mM, sodium ascorbate 2.5 mM, Fe(II) 1 mM, Hepes pH 7.50, room temperature, 18h
Experimental: Enzymatic reaction medium (0.2 µmole, leq.), borate buffer 0,2M pH 7.7 (80 µL) and Fmoc-Cl solution7.5 mM in acetone (100 µL, 0.75 µmole, 3.75 eq) were hand shaked in a closed 1.50 mL eppendorf for one minute. The aqueous layer was extracted with petroleum ether (3*1 mL) to eliminate excess of Fmoc-Cl. 70 µL of the aqueous phase were withdrawn, diluted with 70 µL of acetonitrile and injected into the HPLC. For substrates with two amine functions, 100 µL of Fmoc-Cl solution 15 mM were used.
Conditions for HPLC analysis: Atlantis® T3 (3 µm 4.5*150 mm) at 35°C with the gradient 50-86% eluent B (MeCN + 0.1% TFA) and eluent A (H2O + 0.1% TFA) in 20 min at 1 mL/min.
Enzymatic reaction was carried out in 250 mL glass erlenmeyer flask for a total volume of 4*10 mL. Water (4.8 mL), Hepes buffer 1M pH 7.50 (0.5 mL, 50 mM), L-lysine 50 mM (2 mL, 10 mM), α-ketoglutarate 150 mM (1 mL, 15 mM), sodium ascorbate 100 mM (0.25 mL, 2.5 mM), ammonium Iron(II) sulfate hexahydrate 10 mM (1 mL, 1 mM) were poured into the erlenmeyer flask. The reaction was started by the enzyme addition (0.53 mg/mL, 0.45 mL, final concentration 0.024 mg/mL). The reaction mixture was orbitally shaken (300 rpm) at room temperature for 18h. The conversion of L-lysine into 3-hydroxy-L-lysine (94%) was determined by HPLC after derivatization with Fmoc-Cl according to protocol A.

In the case of NCCCC[C@H](N)C(=O)O [L-lysine], the “conversion of L-lysine into 3-hydroxy-L-lysine” value is reported as 94%.
